Assay results published in patent US5723484A, “Benzopyran compounds as 5-HT2C receptor antagonists” (Adir et Compagnie, priority 1994, dated 1998).
Where a name gives a salt, the structure may show the parent alone.

Key:
5-HT2C receptors [1] = molecular target: T1, 5-HT2C receptors (Sus scrofa, UniProt K7GSR7); test: biochemical; assay type: binding, pig; conditions: for Ki: 5-HT2C Ki (nM), pig cerebral plexus, [3H]-mesulergine 1.0 nM, average of two to four determinations
T1 construct: pig cerebral plexus; from tissue; host or cells: pig cerebral plexus (own knowledge: choroid plexus)
T1 sequence (K7GSR7 1-457): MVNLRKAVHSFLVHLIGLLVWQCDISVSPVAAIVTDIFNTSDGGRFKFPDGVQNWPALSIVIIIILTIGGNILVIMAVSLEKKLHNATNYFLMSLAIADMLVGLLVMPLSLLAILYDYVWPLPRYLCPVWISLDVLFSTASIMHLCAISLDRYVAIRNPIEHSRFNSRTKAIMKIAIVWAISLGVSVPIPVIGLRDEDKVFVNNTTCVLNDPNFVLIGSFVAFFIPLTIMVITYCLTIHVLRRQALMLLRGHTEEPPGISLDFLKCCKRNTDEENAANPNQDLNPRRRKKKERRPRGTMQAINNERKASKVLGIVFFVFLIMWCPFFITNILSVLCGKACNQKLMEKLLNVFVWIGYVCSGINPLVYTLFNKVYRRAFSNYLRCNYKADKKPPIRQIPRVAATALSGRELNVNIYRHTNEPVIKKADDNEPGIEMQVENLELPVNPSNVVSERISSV
Protocol: (§1) Measurement of the in vitro affinity for the 5-HT2C and 5-HT2A receptors
(§2) The procedures described for the studies of the binding to the 5-HT2A and 5-HT2C receptors are exactly those described by H. Canton et al. (Eur. J. Pharmacol., 191, 93, 1990) and M. J. Millan et al. (J. Pharmacol. Exp. Ther., 262, 451-463, 1992). For 5-HT2A : rat frontal cortex/[^3 H]-ketanserin (1.0 nM). For 5-HT2C : pig […] plexus/[^3 H]-mesulergine (1.0 nM). The 50% inhibitory doses (ID50) are determined by regression analysis and the pKi values are calculated as follows: [formula] [L]=concentration of the Kd-Kd=dissociation constant Results

5-HT2C receptors [2] = test: biochemical; assay type: binding, pig; conditions: for 5-HT2A /5-HT2C affinity ratio: 5-HT2A Ki (rat frontal cortex) over 5-HT2C Ki (pig cerebral plexus); for selectivity relative to the reference compound SB 200,646: 5-HT2C vs 5-HT2A, relative to SB 200,646
Protocol: as §1, §2

5-HT2A receptors = molecular target: T2, 5-HT2A receptors (Rattus norvegicus, UniProt P14842); test: In vitro affinity for the 5-HT2A receptors, rat frontal cortex/[3H]-ketanserin (1.0 nM); assay type: binding; conditions: rat frontal cortex, [3H]-ketanserin 1.0 nM; average of two to four determinations
T2 construct: rat frontal cortex; from tissue; host or cells: rat frontal cortex
T2 sequence (P14842 whole entry): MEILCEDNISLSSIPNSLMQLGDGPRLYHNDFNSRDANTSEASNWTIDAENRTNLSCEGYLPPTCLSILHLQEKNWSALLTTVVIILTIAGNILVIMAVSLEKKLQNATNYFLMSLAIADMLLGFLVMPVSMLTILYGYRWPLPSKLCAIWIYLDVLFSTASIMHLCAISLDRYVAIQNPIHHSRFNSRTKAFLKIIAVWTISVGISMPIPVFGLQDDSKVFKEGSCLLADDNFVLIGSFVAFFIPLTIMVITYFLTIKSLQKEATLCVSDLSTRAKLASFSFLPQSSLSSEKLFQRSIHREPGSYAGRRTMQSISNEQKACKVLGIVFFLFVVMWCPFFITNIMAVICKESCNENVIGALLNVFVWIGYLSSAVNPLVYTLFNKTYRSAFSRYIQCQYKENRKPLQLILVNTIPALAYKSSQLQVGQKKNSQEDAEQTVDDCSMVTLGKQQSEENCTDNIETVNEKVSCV
Protocol: as §1, §2

SMILES | Ki (5-HT2C receptors [1]) [nM] | 5-HT2A /5-HT2C affinity ratio (5-HT2C receptors [2]) | Ki (5-HT2A receptors) [µM] | selectivity relative to the reference compound SB 200,646 (5-HT2C receptors [2]) | times more powerful antagonists than the reference compound SB 200,646 (5-HT2C receptors [1]; relative to SB 200,646) [times]
Cl.Oc1cccc2c1[C@H]1CN(Cc3ccccc3)C[C@@H]1CO2 (relative stereo) [Example 2, trans-2-Benzyl-9-hydroxy-1,3,3a,4,9b-pentahydro-(1)-benzopyrano[3,4-c]pyrrole hydrochloride] | 195 | 2.5 | 0.49 |  | 
COc1cccc2c1[C@H]1CN(Cc3ccccc3)C[C@@H]1CO2.Cl (relative stereo) [Example 3, trans-2-Benzyl-9-methoxy-1,3,3a,4,9b-pentahydro-(1)-benzopyrano[3,4-c]pyrrole hydrochloride] | 48 | 5.6 | 0.269 |  | 
COc1cccc2c1[C@H]1CNC[C@@H]1CO2.Cl (relative stereo) [Example 4, trans-9-Methoxy-1,3,3a,4,9b-pentahydro-(1)-benzopyrano[3,4-c]pyrrole hydrochloride] | 431 | 8.0 | 3.47 |  | 
CCCN1C[C@@H]2COc3cccc(OC)c3[C@H]2C1 (relative stereo) [Example 6, trans-2-Propyl-9-methoxy-1,3,3a,4,9b-pentahydro-(1)-benzopyrano[3,4-c]pyrrole] | 104 | 16.7 | 1.74 | twice that of the reference compound SB 200,646 | 
C=CCN1C[C@@H]2COc3cccc(OC)c3[C@H]2C1 (relative stereo) [Example 7, trans-2-Allyl-9-methoxy-1,3,3a,4,9b-pentahydro-(1)-benzopyrano[3,4-c]pyrrol] | 120 | 15.2 | 1.82 | twice that of the reference compound SB 200,646 | 
COc1cccc2c1[C@@H]1CN(CCNC(=O)c3ccc(F)cc3)C[C@H]1CO2 (relative stereo) [Example 8, trans-2-[3-(4-Fluorobenzoylamino)ethyl]-9-methoxy-1,3,3a,4,9b-pentahydro-(1)-benzopyrano[3,4-c]pyrrole] | 107 | 0.9 | 0.095 |  | 
COc1ccc2c(c1)[C@H]1CN(Cc3ccccc3)C[C@@H]1CO2.Cl (relative stereo) [Example 9, trans-2-Benzyl-8-methoxy-1,3,3a,4,9b-pentahydro-(1)-benzopyrano[3,4-c]pyrrole hydrochloride] | 468 | 2.3 | 1.1 |  | 
COc1ccc2c(c1)[C@H]1CNC[C@@H]1CO2.Cl (relative stereo) [Example 10, trans-8-Methoxy-1,3,3a,4,9b-pentahydro-(1)-benzopyrano[3,4-c]pyrrole hydrochloride] | 2190 | > 4.8 | > 10 |  | 
CCCN1C[C@@H]2COc3ccc(OC)cc3[C@H]2C1.Cl (relative stereo) [Example 11, trans-2-Propyl-8-methoxy-1,3,3a,4,9b-pentahydro-(1)-benzopyrano[3,4-c]pyrrole hydrochloride] | 4070 | > 2.3 | > 10 |  | 
Cl.c1ccc(CN2C[C@@H]3COc4ccccc4[C@@H]3C2)cc1 (relative stereo) [Example 12, cis-2-Benzyl-1,3,3a,4,9b-pentahydro-(1)-benzopyrano[3,4-c]pyrrole hydrochloride] | 832 | 4.3 | 3.55 |  | 
Cl.c1ccc2c(c1)OC[C@H]1CNC[C@@H]21 (relative stereo) [Example 13, cis-1,3,3a,4,9b-Pentahydro-(1)-benzopyrano[3,4-c]pyrrole hydrochloride] | 3090 | > 3.33 | > 10 |  | 
Oc1cccc2c1[C@H]1CN(Cc3ccccc3)C[C@H]1CO2 (relative stereo) [Example 14, cis-2-Benzyl-9-hydroxy-1,3,3a,4,9b-pentahydro-(1)-benzopyrano[3,4-c]pyrrolehydrochloride] | 219 | 5.00 | 1.1 |  | 
COc1cccc2c1[C@H]1CN(Cc3ccccc3)C[C@H]1CO2 (relative stereo) [Example 15, cis-2-Benzyl-9-methoxy-1,3,3a,4,9b-pentahydro-(1)-benzopyrano[3,4-c]pyrrolehydrochloride] | 36.3 | 10.7 | 0.389 |  | 
COc1cccc2c1[C@@H]1CNC[C@@H]1CO2.Cl (relative stereo) [Example 16, cis-9-Methoxy-1,3,3a,4,9b-pentahydro-(1)-benzopyrano[3,4-c]pyrrole hydrochloride] | 263 | 12.6 | 3.31 |  | 
Cl.Clc1ccc2c(c1)OC[C@H]1CN(Cc3ccccc3)C[C@H]21 (relative stereo) [Example 18, trans-2-Benzyl-7-chloro-1,3,3a,4,9b-pentahydro-(1)-benzopyrano[3,4-c]pyrrole hydrochloride] | 871 | 2.1 | 1.87 |  | 
c1ccc2c(c1)OC[C@@H]1CN(CCOc3cccc4c3SCCC4)C[C@H]21 (relative stereo) [Example 19, cis-2-[2-(Thiochroman-8-yloxy)ethyl]-1,3,3a,9b-pentahydro-(1)-benzopyrano[3,4-c]pyrrole hydrochloride] | 22 | 7.0 | 0.155 |  | 9
COc1ccc2c(c1)OC[C@@H]1CN(Cc3ccccc3)C[C@H]21 (relative stereo) [Example 21, cis-2-Benzyl-7-methoxy-1,3,3a,4,9b-pentahydro-(1)-benzopyrano[3,4-c]pyrrolehydrochloride] | 871 | 0.7 | 0.617 |  | 
COc1ccc2c(c1)OC[C@H]1CN(Cc3ccccc3)C[C@H]21.Cl (relative stereo) [Example 22, trans-2-Benzyl-7-methoxy-1,3,3a,4,9b-pentahydro-(1)-benzopyrano[3,4-c]pyrrole hydrochloride] | 478 | 3.6 | 0.17 |  | 
Clc1ccc2c(c1)[C@H]1CN(Cc3ccccc3)C[C@H]1CO2 (relative stereo) [Example 24, cis-2-Benzyl-8-chloro-1,3,3a,4,9b-pentahydro-(1)-benzopyrano[3,4-c]pyrrolehydrochloride] | 38 | 2.8 | 0.107 |  | 
Cl.c1ccc2c3c(ccc2c1)OC[C@@H]1CNC[C@@H]31 (relative stereo) [Example 33, trans-1,2,3,3a,4,11c-Hexahydro-5-oxa-2-aza-cyclopenta[c]phenanthrene hydrochloride] | 51 | 2.1 | 0.107 |  | 
Cl.c1ccc(CN2C[C@H]3COc4c(ccc5ccccc45)[C@@H]3C2)cc1 (relative stereo) [Example 34, trans-16-Benzyl-12,13,14,15,16,17-hexahydro-11-oxa-16-aza-cyclopenta[a]phenanthrene hydrochloride] | 776 | 1.9 | 1.48 |  | 
Cl.c1ccc(CN2C[C@@H]3COc4c(ccc5ccccc45)[C@@H]3C2)cc1 (relative stereo) [Example 35, cis-16-Benzyl-12,13,14,15,16,17-hexahydro-11-oxa-16-aza-cyclopenta[a]phenanthrene hydrochloride] | 331 | 2.9 | 0.955 |  | 
Cl.c1ccc2c3c(ccc2c1)[C@@H]1CNC[C@@H]1CO3 (relative stereo) [Example 36, cis-12,13,14,15,16,17-Hexahydro-11-oxa-16-aza-cyclopenta[a]phenanthrene hydrochloride] | 25.7 | 10 | 0.257 |  | 
c1ccc(CN2C[C@H]3COc4ccc5ccccc5c4[C@H]3C2)cc1 (relative stereo) [Example 37, cis-2-Benzyl-1,2,3,3a,4,11c-hexahydro-5-oxa-2-aza-cyclopenta[c]phenanthrenehydrochloride] | 155 | 8.7 | 1.35 |  | 
Cl.c1ccc2c3c(ccc2c1)OC[C@@H]1CNC[C@H]31 (relative stereo) [Example 38, cis-1,2,3,3a,4,11c-Hexahydro-5-oxa-2-aza-cyclopenta[c]phenanthrene hydrochloride] | 22.9 | 4.3 | 0.0977 |  | 
